Test results published in patent US4661499A, “2-[(substituted)-phenoxymethyl]quinolines” (Merck Frosst Canada, Inc., priority 1985, dated 1987).

System: LTB4 formation
Test: Rat Peritoneal Polymorphonuclear (PMN) Leukocyte Assay (leukotriene inhibitor assay)
Type: cell-based
Conditions: A-23187 10 μM
Method: For example, 2-[4-(1-hydroxyhexylphenoxymethyl)]quinoline (see Example 1) was compared to its 3-(1-hydroxyhexylphenoxymethyl) analog in the PMN (leukotriene inhibitor) assay.
Rats under ether anesthesia are injected (i.p.) with 8 ml of a suspension of sodium cascinate (6 grams in ca. 50 ml water). After 15-24 hr. the rats are sacrificed (CO2) and the cells from the peritoneal cavity are recovered by lavage with 20 ml of buffer (Eagles MEM containing 30 mM HEPES adjusted to pH 7.4 with NaOH). The cells are pelleted (350×g, 5 min.), resuspended in buffer with vigorous shaking, filtered, through lens paper, recentrifuged and finally suspended in buffer at a concentration of […]. A 500 μl aliquot of PMN suspension and test compound are preincubated for 2 minutes at 37° C., followed by the addition of 10 μM A-23187. The suspension is stirred for an additional 4 minutes then bioassayed for […] content by adding an aliquot to a second 500 μl portion of the PMN at 37° C. The LTB4 produced in the first incubation causes aggregation of the second PMN, which is measured as a change in light transmission. The size of the assay aliquot is chosen to give a submaximal transmission change (usually -70%) for the untreated control. The percentage inhibition of LTB4 formation is calculated from the ratio of transmission change in the sample to the transmission change in the compound-free control.

Question: What does the source list for CCCCCC(O)c1ccc(OCc2ccc3ccccc3n2)cc1 (centres unmarked) [Example 1]?
Answer: % Inhibition of LTB4 formation (0.0016 μg/ml): 15%; % Inhibition of LTB4 formation (0.008 μg/ml): 49%; % Inhibition of LTB4 formation (0.04 μg/ml): 89%; % Inhibition of LTB4 formation (0.2 μg/ml): 100%; % Inhibition of LTB4 formation (1 μg/ml): 100%; % Inhibition of LTB4 formation (5 μg/ml): 100%

Question: What does the source list for CCCCCC(O)c1cccc(OCc2ccc3ccccc3n2)c1 (centres unmarked) [Example 3-Analog, reference compound]?
Answer: % Inhibition of LTB4 formation (0.008 μg/ml): -1%; % Inhibition of LTB4 formation (0.04 μg/ml): 39%; % Inhibition of LTB4 formation (0.2 μg/ml): 100%; % Inhibition of LTB4 formation (1 μg/ml): 100%; % Inhibition of LTB4 formation (5 μg/ml): 100%
